Laboratory results from patent US20240132431A1, “METHOD FOR ALKYLATING ACIDIC FUNCTIONAL GROUP” (Chugai Seiyaku Kabushiki Kaisha, priority 2021, published 2024).
Values belong to the compound of their own block, whether it stands above or below them.

Molecular target: T1, Bcl-2 protein (Recombinant Human Bcl-2 Protein) (Homo sapiens, UniProt P10415)
T1 construct: purchased Novus NBP2-34889
Experiment: Binding evaluation of mixture library compounds to Bcl-2 using AS-MS (affinity selection mass spectrometry)
Conditions: for ASMS ratio (%) n = 1: replicate n = 1; for ASMS ratio (%) n = 1 / ASMS ratio (%) n = 2: ASMS Ratio(%)=(A−C)/B×100; for ASMS ratio (%) n = 2: replicate n = 2
Protocol: For one well of MICROPLATE, 96-well, PP, V-BOTTOM (Greiner bio-one, 651201), DMSO solutions of 12 mixtures (prepared to approximately 0.58 mM based on calculations from the average molecular weight of each mixture), in each of which 100 compounds are mixed, were each dispensed, and dispensed into a total of 12 wells, where the 12 mixtures are mixAI-B4J-01, mixAI-B1M-01, mixAI-B1K-01, mixAI-B10-01, mixAI-B1A-01, mixAI-B3A-01, mixAI-B21-01, mixAI-B2L-01, mixAI-B2N-01, mixAI-B2A-01, mixAI-B2Q-01, and mixAI-B2R-01 listed in [Table AI-03-B4J-01], [Table AI-03-B1M-01], [Table AI-03-B1K-01], [Table AI-03-B10-01], [Table AI-03-B1A-01], [Table AI-03-B3A-01], [Table AI-03-B2I-01], [Table AI-03-B2L-01], [Table AI-03-B2N-01], [Table AI-03-B2A-01], [Table AI-03-B2Q-01], and [AI-03-B2R-01] shown in Example 6. Using the LABCYTE ECHO® 555 Acoustic Dispensing System (BECKMAN COULTER), 70 nL was collected from each of the 12 wells into one arbitrary well to prepare a sample solution with 1200 compounds in the mixed state (the presence of 1152 compounds had already been identified when prepared in Example 6-5-3). (In the present specification, the mixture collected in this one well is referred to as one library.) Furthermore, a Bcl-2 protein (Novus, NBP2-34889, Recombinant Human Bcl-2 Protein, Lot E60145051) (19.2 μL) that had been prepared in advance to be 20.9 μM using a Tris-HCl buffer (25 mM Tris-HCl pH 7.4, 150 mM NaCl, 0.025% Tween-20, 1 mM DTT) was added to the well in which 1200 compounds (the presence of 1152 compounds had already been identified when prepared in Example 6-5-3) were dispensed (final compound concentration […], final Bcl-2 concentration 20 μM), and the mixture was incubated in the dark at 23° C. for 1 hour. Next, using the 96-well MacroSpin column, P-2 Material (Harvard, 74-5655) that had been swollen, conditioning of the 96-well MacroSpin column was performed three times by centrifugation with 200 μL of an assay buffer (25 mM Tris-HCl pH 7.4, 150 mM NaCl, 0.025% Tween-20, 1 mM DTT), 2000 XG, 4° C., 2 min. Subsequently, 20 μL of the sample after incubation was added to the 96-well MacroSpin column, P-2 Material, that had been conditioned, and SEC treatment was performed by centrifugation at 2000×G for 2 minutes. To the liquid passed from the SEC, 32 μL of a 1:1 mixed solution of acetonitrile and methanol (LC/MS grade, Fujifilm Wako Pure Chemical Corporation) was added, the mixture was centrifuged at 1800×G, 4° C., 5 min, and the supernatant was used as analysis sample ASMS (A), while a sample that had been prepared by the same operations at 1200 compounds/well and to which only the Tris-HCl buffer had been added without the Bcl-2 protein was incubated under the same conditions, no 96-well MacroSpin column treatment was performed, the same organic solvent was added, and the supernatant solution obtained by centrifugation was used as STD (B). Next, a sample that had been prepared by the same operations at 1200 compounds/well and to which only the Tris-HCl buffer had been added without the Bcl-2 protein was incubated under the same conditions, the same 96-well MacroSpin column treatment was performed, the same organic solvent was added, and the supernatant solution obtained by centrifugation was used as BK (C), and measured by reversed phase LC/MS.
Then, analysis of the 1200 compounds was carried out for samples A, B, and C with TraceFinder 5.1 (Thermo Fisher Scientific) and CHANCE Software (in-house), and the ASMS Ratio (%) was calculated according to the following calculation formula.
Calculation formula: ASMS Ratio(%)=(A−C)/B×100

[1] = AS-MS on the mixture of 1200 library compounds
[2] = AS-MS, mixture of 1200 compounds, Bcl-2

T1 sequence (P10415 whole entry): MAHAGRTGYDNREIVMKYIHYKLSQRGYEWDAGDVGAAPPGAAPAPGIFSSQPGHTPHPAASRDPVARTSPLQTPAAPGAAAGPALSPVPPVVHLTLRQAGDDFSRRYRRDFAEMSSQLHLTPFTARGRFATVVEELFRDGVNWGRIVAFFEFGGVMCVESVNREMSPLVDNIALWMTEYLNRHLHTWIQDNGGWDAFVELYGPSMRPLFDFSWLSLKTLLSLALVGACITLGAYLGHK

ASMS ratio (%) n = 1 (AS-MS, mixture library, Bcl-2): 10.5%
ASMS ratio (%) n = 2 (AS-MS, mixture library, Bcl-2): −2.9%
Compound: CCOc1cccc(-c2ccc(CN3CCN(c4ccc(C(=O)NS(=O)(=O)CC56CC7CC(CC(C7)C5)C6)cc4)CC3)c3ccccc23)c1 [B2A065-01, N-(1-Adamantylmethylsulfonyl)-4-[4-[[4-(3-ethoxyphenyl)naphthalen-1-yl]methyl]piperazin-1-yl]benzamide]

ASMS ratio (%) n = 1 (AS-MS, mixture library, Bcl-2): 3.2%
ASMS ratio (%) n = 2 (AS-MS, mixture library, Bcl-2): 0.0%
Compound: CCOc1cncc(-c2ccc(CN3CCN(c4ccc(C(=O)NS(=O)(=O)CC56CC7CC(CC(C7)C5)C6)cc4)CC3)c3ccccc23)c1 [B2A066-01, N-(1-Adamantylmethylsulfonyl)-4-[4-[[4-(5-ethoxypyridin-3-yl)naphthalen-1-yl]methyl]piperazin-1-yl]benzamide]

ASMS ratio (%) n = 1 [1]: 6.5%
ASMS ratio (%) n = 2 [1]: 4.9%
Compound: CCOc1cccc(-c2ccc(C(=O)N3CCN(c4ccc(C(=O)N(C)CC56CC7CC(CC(C7)C5)C6)nn4)CC3)cc2C)c1 [B3A003-01, N-(1-Adamantylmethyl)-6-[4-[4-(3-ethoxyphenyl)-3-methylbenzoyl]piperazin-1-yl]-N-methylpyridazine-3-carboxamide]

ASMS ratio (%) n = 1 [2]: 0.6%
ASMS ratio (%) n = 2 [2]: −1.8%
Compound: CCOc1cncc(-c2cc(C(=O)N3CCN(c4ccc(C(=O)NCC(F)(F)F)cc4)CC3)cc(C(C)(C)C)c2)c1 [B1K038-01, 4-[4-[3-tert-Butyl-5-(5-ethoxypyridin-3-yl)benzoyl]piperazin-1-yl]-N-(2,2,2-trifluoroethyl)benzamide]

ASMS ratio (%) n = 1 [1]: 4.2%
ASMS ratio (%) n = 2 [1]: 2.2%
Compound: CCOc1cccc(-c2ccc(C(C)N3CCN(c4ccc(C(=O)Nc5ccc(OC)cc5)cc4)CC3)cc2)c1 (centres unmarked) [B1O097-01, 4-[4-[1-[4-(3-Ethoxyphenyl)phenyl]ethyl]piperazin-1-yl]-N-(4-methoxyphenyl)benzamide]

Compound: CCOc1cccc(-c2ccc(C(C)N3CCN(c4ccc(C(=O)N(CC)CC)cc4)CC3)cc2)c1 (centres unmarked) [B4J097-01, 4-[4-[1-[4-(3-Ethoxyphenyl)phenyl]ethyl]piperazin-1-yl]-N,N-diethylbenzamide]
ASMS ratio (%) n = 1 (AS-MS, mixture library, Bcl-2): −0.9%
ASMS ratio (%) n = 2 (AS-MS, mixture library, Bcl-2): −0.4%

ASMS ratio (%) (n = 1): 0.0%
ASMS ratio (%) (n = 2): 0.0%
Compound: CCOc1cncc(-c2ccc(CN3CCN(c4ccc(C(=O)NS(C)(=O)=O)cc4)CC3)cc2C)c1 [B2I048-01, 4-[4-[[4-(5-Ethoxypyridin-3-yl)-3-methylphenyl]methyl]piperazin-1-yl]-N-methylsulfonylbenzamide]

ASMS ratio (%) n = 1 (AS-MS, mixture library, Bcl-2): 8.2%
ASMS ratio (%) n = 2 (AS-MS, mixture library, Bcl-2): 6.9%
Compound: CCOc1cccc(-c2ccc(C(=O)N3CCN(c4ccc(C(=O)NS(=O)(=O)c5ccc(NCCSc6ccccc6)c([N+](=O)[O-])c5)nn4)CC3)cc2C)c1 [B2Q003-01, 6-[4-[4-(3-Ethoxyphenyl)-3-methylbenzoyl]piperazin-1-yl]-N-[3-nitro-4-(2-phenylsulfanylethylamino)phenyl]sulfonylpyridazine-3-carboxamide]

ASMS ratio (%) n = 1 [1]: −5.8%
ASMS ratio (%) n = 2 [1]: 5.4%
Compound: CCOc1cccc(-c2ccc(CN3CCN(c4ccc(C(=O)N(C)CC56CC7CC(CC(C7)C5)C6)nn4)CC3)c(OC)c2)c1 [B3A079-01, N-(1-Adamantylmethyl)-6-[4-[[4-(3-ethoxyphenyl)-2-methoxyphenyl]methyl]piperazin-1-yl]-N-methylpyridazine-3-carboxamide]

ASMS ratio (%) n = 1 [2]: −22.3%
ASMS ratio (%) n = 2 [2]: −13.0%
Compound: CCOc1cccc(C#Cc2ccccc2C(=O)N2CCN(c3ccc(C(=O)NCC45CC6CC(CC(C6)C4)C5)cc3)CC2)c1 [B1A029-01, N-(1-Adamantylmethyl)-4-[4-[2-[2-(3-ethoxyphenyl)ethynyl]benzoyl]piperazin-1-yl]benzamide]

ASMS ratio (%) (n = 1): 0.0%
ASMS ratio (%) (n = 2): 0.0%
Compound: CCOc1cccc(-c2ccccc2CCC(=O)N2CCN(c3ccc(C(=O)NS(=O)(=O)C(C)(C)C)cc3)CC2)c1 [B2L033-01, N-tert-Butylsulfonyl-4-[4-[3-[2-(3-ethoxyphenyl)phenyl]propanoyl]piperazin-1-yl]benzamide]

ASMS ratio (%) n = 1 [2]: 2.6%
ASMS ratio (%) n = 2 [2]: −2.4%
Compound: CCOc1cncc(-c2ccc(CN3CCN(c4ccc(C(=O)NCC56CC7CC(CC(C7)C5)C6)nn4)CC3)c3ccccc23)c1 [B1A092-01, N-(1-Adamantylmethyl)-6-[4-[[4-(5-ethoxypyridin-3-yl)naphthalen-1-yl]methyl]piperazin-1-yl]pyridazine-3-carboxamide]

Compound: CCOc1cncc(-c2cc(CN3CCN(c4ccc(C(=O)Nc5ccc(OC)cc5)cc4)CC3)cc(OC(C)C)c2)c1 [B1O058-01]
ASMS ratio (%) n = 1 [1]: −3.5%
ASMS ratio (%) n = 2 [1]: 4.4%

ASMS ratio (%) n = 1 [2]: 0.0%
ASMS ratio (%) n = 2 [2]: 0.0%
Compound: CCOc1cncc(-c2ccc(C(C)N3CCN(c4ccc(C(=O)NCC(F)(F)F)cc4)CC3)c(F)c2)c1 (centres unmarked) [B1K100-01, 4-[4-[1-[4-(5-Ethoxypyridin-3-yl)-2-fluorophenyl]ethyl]piperazin-1-yl]-N-(2,2,2-trifluoroethyl)benzamide]

ASMS ratio (%) n = 1 [1]: −1.0%
ASMS ratio (%) n = 2 [1]: 1.5%
Compound: CCOc1cccc(C#Cc2ccccc2C(=O)N2CCN(c3ccc(C(=O)N(CC)CC)nn3)CC2)c1 [B4J007-01, 6-[4-[2-[2-(3-Ethoxyphenyl)ethynyl]benzoyl]piperazin-1-yl]-N,N-diethylpyridazine-3-carboxamide]

ASMS ratio (%) (n = 1): 0.0%
ASMS ratio (%) (n = 2): 0.0%
Compound: CCOc1cccc(-c2ccc(CN3CCN(c4ccc(C(=O)NS(C)(=O)=O)cc4)CC3)c(OC)c2)c1 [B2I053-01]

ASMS ratio (%) (n = 1): 0.0%
Compound: CCOc1cccc(C#Cc2cc(C(=O)N3CCN(c4ccc(C(=O)NS(=O)(=O)C(C)(C)C)cc4)CC3)cc(C(F)(F)F)c2)c1 [B2L041-01, N-tert-Butylsulfonyl-4-[4-[3-[2-(3-ethoxyphenyl)ethynyl]-5-(trifluoromethyl)benzoyl]piperazin-1-yl]benzamide]

Compound: 4-[4-[[4-(3-Ethoxyphenyl)-2-methoxyphenyl]methyl]piperazin-1-yl]-N-propylbenzamide [B1M093-01]
ASMS ratio (%) n = 1 [1]: 0.0%
ASMS ratio (%) n = 2 [1]: 0.0%

ASMS ratio (%) n = 1 [2]: 5.1%
ASMS ratio (%) n = 2 [2]: 1.8%
Compound: CCOc1cccc(-c2csc(CN3CCN(c4ccc(C(=O)NCC(F)(F)F)cc4)CC3)c2)c1 [B1K067-01, 4-[4-[[4-(3-Ethoxyphenyl)thiophen-2-yl]methyl]piperazin-1-yl]-N-(2,2,2-trifluoroethyl)benzamide]

ASMS ratio (%) n = 1 [2]: 0.0%
ASMS ratio (%) n = 2 [2]: 0.0%
Compound: CCOc1cncc(-c2ccc(CN3CCN(c4ccc(C(=O)NCC56CC7CC(CC(C7)C5)C6)cc4)CC3)c(OC)c2)c1 [B1A054-01, N-(1-Adamantylmethyl)-4-[4-[[4-(5-ethoxypyridin-3-yl)-2-methoxyphenyl]methyl]piperazin-1-yl]benzamide]

ASMS ratio (%) (n = 1): 0.0%
ASMS ratio (%) (n = 2): 0.0%
Compound: CCOc1cccc(-c2ccc(C(=O)N3CCN(c4ccc(C(=O)NS(=O)(=O)CCC(F)(F)F)cc4)CC3)cc2C)c1 [B2N025-01, 4-[4-[4-(3-Ethoxyphenyl)-3-methylbenzoyl]piperazin-1-yl]-N-(3,3,3-trifluoropropylsulfonyl)benzamide]
